Series [1] concerns MDA-MB-231 cells. The series can be described thus: Matrigel invasion assay, MDA-MB-231 cells. The format is cell-based, human.
The subject of series [2] is MDA-MB-468 cells. The series can be described thus: Matrigel invasion assay, MDA-MB-468 cells. The class given is cell-based, human. As to conditions: hypoxia, FIG. 8.
Series [3] concerns MDA-MB-231 cells. The experiment in a line: Cell viability, trypan blue dye exclusion, MDA-MB-231. The format is cell-based, human. As to conditions: normoxia or hypoxia, 48 h. On the procedure:
(§1) Cell viability was determined with the use of trypan blue dye exclusion assay. The assay was undertaken both in normoxic and hypoxic conditions. Upon completion of the treatment period, the media was aspirated and replaced with 0.2 mL of 0.4% trypan blue (Sigma-Aldrich) and 0.8 mL of DMEM media. The dish was mixed and incubated for 10 min in the humidified chamber. The trypan blue solution was replaced with 1 mL of DMEM and the dishes were observed under an inverted microscope (ID 03, Zeiss) at 100× magnification under phase contrast. The MTT assay was used to assess cell metabolic activity by determining the level of NAD (P) H-dependent cellular oxidoreductase enzymes. Cells were seeded in 24 well plates (Becton Dickinson, Oxford, UK) at 2×10^4 cells/well and were allowed to settle overnight before treatment. During the treatment, 500 μL of solution was added to each well and the assays were undertaken in both normoxic and hypoxic conditions. Upon treatment completion, 400 μL of DMEM and 100 μL of MTT was added into each well. […] The plates were rocked at 150 cycles/min for 5 min to mix the formazan with DMSO and the resulting formazan absorbance was measured at 570 nm with a multi-plate reader (ELX800 Universal Microplate Reader, Bio-Tek Instruments, UK). Two measurements for each result were recorded with a 5 min interval and the average was calculated.

For series [4], the target named is T1, VGSC (Homo sapiens, UniProt Q14524, S234P/V215L).
T1 construct: minoxidil on the VGSC activity in MDA-MB-231 cells; endogenous in cells; host or cells: MDA-MB-231 (human breast cancer cell line)
The experiment in a line: Whole-cell patch clamp of VGSC current in MDA-MB-231 cells. The format is cell-based. The method, then: Whole-cell patch clamp recordings are performed on cells under superfusion with mammalian physiological saline (MPS). Details of whole-cell recordings have been described previously (Fraser et al., 2003, 2005; Grimes et al., 1995; Laniado et al., 1997). In brief, MPS contains (in mM): 144 NaCl, 5.4 KCl, 1 MgCl2, 2.5 CaCl2), 5 HEPES and 5.6 D-glucose (adjusted to pH 7.3 with NaOH). Patch pipettes (tip resistances, ˜5 MΩ) are filled with a solution designed to block the outward K^+ currents (in mM): NaCl 5, CsCl 145, MgCl2 2, CaCl2) 1, HEPES 10 and EGTA 11, adjusted to pH 7.4 with 1 M CsOH. The estimated intracellular free Ca^2+ concentration is ˜15 nM (Laniado et al., 2001). A holding potential of −100 mV is applied. Standard voltage-clamp protocols are used to study the electrophysiological properties of the VGSC currents. Mainly the following characteristics are studied: peak current (and its density), current-voltage relationship (current normalized to peak), steady-state inactivation/“availability”=test current (I)/maximum current (Imax); recovery from inactivation=test current (It)/control current (Ic). For accurate determination of the acute effect of minoxidil on peak current block, only currents larger than 200 pA are used. Further details of the voltage-clamp protocols, data analysis and curve fitting have been published earlier (Onkal et al., 2008).

In series [5] the test system is nNav1.5 protein. The series can be described thus: Immunocytochemistry of nNav1.5 protein expression in MDA-MB-231 cells. The class given is cell-based, human. As to conditions: hypoxia. On the procedure:
Cells were first seeded in 35×10 mm dishes (Becton Dickinson) at 5×10^5 cell/dish and left to settle overnight. The cells were pre-treated with treatment solutions for 32 h. The assay was only performed under hypoxia conditions. Before seeding the cells, 13 mm coverslips were placed in 24 well plates and 500 μL poly-L-lysine (Sigma) was added to each well for 20 min. After the period of pre-treatments, cells were trypsinized and seeded at 2×10^4 cells/coverslip in 500 μL of their respective treatment solutions. The plates were incubated under hypoxic condition and the assay was allowed for 16 h. At least two coverslips were prepared for each experiment. Upon assay completion, the coverslips were washed with phosphate buffered saline (PBS) before being fixed with 500 μL of 4% paraformaldehyde (Sigma) diluted in PBS. Fixation was for 10 min at room temperature on an orbital shaker. Coverslips were then washed 3×5 min in PBS. One of the coverslips for each condition was permeabilised with 500 μL 0.1% saponin/PBS solution (Sigma) for 4 min and 3×5 min of PBS washes followed. Permeabilised and non-permeabilised coverslips were all were treated with 500 μL 5% bovine serum albumin (BSA)/PBS (pH 7.4, v/v; Dako, Cambridge, UK) blocking agent for 1 h. Coverslips were transferred from the 24 well plate to a humidity chamber and were incubated with 100 μL of the primary antibody (NESOpAb) at a 1:200 dilution of the 0.7 mg/mL stock on an orbital shaker overnight at 3-5° C. The primary antibody used was NESOpAb which can specifically recognize and bind an external epitope sequence of the neonatal isoform of Nav1.5 […] et al., 2005). Coverslips were then rinsed with 3×5 min PBS and incubated with 100 μL of the secondary antibody, goat anti-rabbit IgG Alexa Fluor® 568, at a 1:100 concentration (Dako) for 1 h in darkness at room temperature. Coverslips for negative controls (which were incubated with secondary antibody only) were also prepared to check the specificity of the primary antibody. Coverslips were then rinsed with 3×5 min PBS+0.1% BSA and dipped in distilled water before being mounted on glass slides using mounting medium (Dako) and stored in darkness at 3-5° C. Images were taken with a Canon® digital camera inserted into an Axioimager immunofluorescence and phase contrast inverted microscope (Zeiss) and processed with Remote Capture Software® (Canon). ImageJ was used to analyse and quantify the corrected total cell florescence.

The subject of series [6] is MDA-MB-468 cells. The experiment in a line: Cell viability, trypan blue dye exclusion, MDA-MB-468. As to conditions: normoxia or hypoxia, 48 h. The class given is cell-based, human. On the procedure:
as §1

The mark [7] stands for this setting: 50 μM minoxidil, short-term (acute) application, FIG. 11.

Like-named read-outs stand apart in the source and are kept apart here.

With `COc1cc2ncnc(Nc3cccc(Cl)c3)c2cc1OC` [AG1478, N-(3-chlorophenyl)-6,7-dimethoxy-4-quinazolinamine], the “effect on invasiveness (normalized to control)” value in series [1] (10 μM AG1478, normoxia, FIG. 10) was “significant inhibitory effect”.

In the case of `NC1=N[C@H](O)[C@H]2[C@H]3O[C@]4(O)O[C@@H]([C@@H](O)[C@@]2(N1)[C@@H]4O)[C@]3(O)CO` [TTX, Tetrodotoxin], the “effect on invasiveness (normalized to control)” value in series [1] is “slight effect but this is not significant”.

`Nc1cc(N2CCCCC2)nc(N)[n+]1[O-]` [minoxidil, 6-(1-Piperidinyl)pyrimidine-2,4-diamine 3-oxide]: the “reduction of cell invasion” value stood at 44% in series [2] (2.5 μM minoxidil); 24% in series [1] (2.5 μM minoxidil, hypoxia, FIG. 6a); 41% in series [1] (2.5 μM minoxidil, hypoxia, FIG. 6b); 42% in series [1] (2.5 μM minoxidil, hypoxia, FIG. 6c); 49% in series [1] (2.5 μM minoxidil, hypoxia, FIG. 7a); 48% in series [1] (2.5 μM minoxidil, hypoxia, set with 5 μM ranolazine (FIG. 4b/5b)). Further, the “reduction of cell invasion” value in series [1] (2.5 μM minoxidil, normoxia, FIG. 7b) came to 53%; in series [1] (5 μM minoxidil, hypoxia, FIG. 5a), 56%; in series [1] (50 μM minoxidil, hypoxia, FIG. 5a), 89%. For the same compound, the “effect on cell viability” value in series [3] (50 μM minoxidil) and in series [6] (50 μM minoxidil) was “no effect” throughout. Also, the “effect on VGSC characteristics” value in series [4] (50 μM minoxidil, long-term (48 hour) treatment under hypoxia, then washing off, FIG. 12) was “no change”. For the same compound, the “effect on peak current” value in series [4] (setting [7]) is “no effect”. In addition, in series [4] (setting [7]), the “effect on steady-state inactivation” value was “shifted the steady-state inactivation to more hyperpolarised potentials”. In series [5] (50 μM minoxidil, non-permeabilized cells, FIG. 9a, P=0.58), the “effect on nNav1.5 protein expression” value is listed as “neither minoxidil nor the drug combination had a significant effect”. In series [5] (50 μM minoxidil, permeabilized cells (total), FIG. 9b), the “reduction of nNav1.5 protein expression” value came out at 49%.

In the case of `COc1ccccc1OCC(O)CN1CCN(CC(=O)Nc2c(C)cccc2C)CC1` (stereo not shown) [ranolazine, N-(2,6-Dimethylphenyl)-4-[2-hydroxy-3-(2-methoxyphenoxy)propyl]-1-piperazineacetamide], the “reduction of cell invasion” value in series [2] (2.5 μM ranolazine) was found to be 33%; in series [1] (0.625 μM ranolazine, hypoxia, FIG. 6c), 24%; in series [1] (1.25 μM ranolazine, hypoxia, FIG. 6b) it was 32%; in series [1] (2.5 μM ranolazine, hypoxia, FIG. 6a), 36%; in series [1] (2.5 μM ranolazine, hypoxia, FIG. 7a), 30%; in series [1] (5 μM ranolazine, hypoxia, FIG. 5a) it was 42%. Further, the “reduction of cell invasion” value in series [1] (5 μM ranolazine, hypoxia, set with 2.5 μM minoxidil (FIG. 4b/5b)) is on record as 43%. Further, the “effect on cell viability” value in series [3] (5 μM ranolazine) and in series [6] (5 μM ranolazine) was “no effect” in each case. Further, in series [4] (ranolazine at the concentrations used in the Examples (<<10 µM), FIG. 2), the “effect on the transient ('peak') component of VGSC current” value is “hardly any effect”. The “reduction of nNav1.5 protein expression” value in series [5] (5 μM ranolazine, non-permeabilized cells (plasma membrane), FIG. 9a) came out at 30%; in series [5] (5 μM ranolazine, permeabilized cells (total), FIG. 9b) it was 43%. Also, in series [1] (2.5 μM ranolazine, normoxia, FIG. 7b), the “effect on cell invasion” value is “no effect”.

The values are drawn from patent US12508260B2, “Combination treatments” (Celex Oncology Innovations Limited, priority 2019, dated 2025).
